Data: the NIST ThermoML archive (doi:10.1016/j.jct.2005.06.001)
Several values for one entry are separate records, joined by “and”; a condition that tells them apart may be missing. Identical values can stand only once.

Conditions: Crystal; for vapor or sublimation pressure: Calculated from knudsen effusion weight loss; for Normal melting temperature: visual observation

Cc1c2ccccc2c(C)c2ccccc12 [9,10-dimethylanthracene]
Conditions | Normal melting temperature [°C] | vapor or sublimation pressure
– | 186.4 | –
363.18 K | – | 0.000229 kPa and 0.000242 kPa and 0.000213 kPa
365.2 K | – | 0.000287 kPa and 0.000302 kPa and 0.000271 kPa
367.18 K | – | 0.000344 kPa and 0.00036 kPa and 0.000332 kPa
369.18 K | – | 0.000444 kPa and 0.00041 kPa and 0.000425 kPa
371.2 K | – | 0.000498 kPa and 0.00053 kPa and 0.000494 kPa
373.19 K | – | 0.000613 kPa and 0.000654 kPa and 0.00061 kPa
375.18 K | – | 0.000736 kPa and 0.000761 kPa and 0.00071 kPa
377.17 K | – | 0.00088 kPa and 0.000913 kPa and 0.000841 kPa
378.98 K | – | 0.001057 kPa and 0.001092 kPa and 0.001008 kPa

Cc1c2ccccc2cc2ccccc12 [9-methylanthracene]
Conditions | Normal melting temperature [°C] | vapor or sublimation pressure
– | 81.7 | –
329.16 K | – | 0.000185 kPa and 0.000194 kPa and 0.000184 kPa
331.19 K | – | 0.000237 kPa and 0.000244 kPa and 0.000236 kPa
333.17 K | – | 0.000271 kPa and 0.000297 kPa and 0.000286 kPa
335.16 K | – | 0.00036 kPa and 0.00035 kPa and 0.000345 kPa
337.15 K | – | 0.000427 kPa and 0.00045 kPa and 0.000435 kPa
339.16 K | – | 0.000562 kPa and 0.000577 kPa and 0.000559 kPa
341.17 K | – | 0.000666 kPa and 0.000681 kPa and 0.00066 kPa
343.21 K | – | 0.000829 kPa and 0.000851 kPa and 0.000821 kPa
345.19 K | – | 0.001004 kPa and 0.00104 kPa and 0.001011 kPa

CCc1ccc2cc3ccccc3cc2c1 [2-ethylanthracene]
Conditions | Normal melting temperature [°C] | vapor or sublimation pressure
– | 154.5 | –
343.27 K | – | 0.000164 kPa and 0.000165 kPa
345.13 K | – | 0.000203 kPa and 0.0002 kPa
347.1 K | – | 0.000239 kPa and 0.000235 kPa and 0.000241 kPa
349.26 K | – | 0.000306 kPa and 0.000309 kPa and 0.000301 kPa
351.15 K | – | 0.000378 kPa and 0.000372 kPa and 0.00037 kPa
353.11 K | – | 0.000465 kPa and 0.000456 kPa and 0.000458 kPa
355.27 K | – | 0.00056 kPa and 0.000562 kPa and 0.000569 kPa
357.07 K | – | 0.000684 kPa and 0.000668 kPa
359.05 K | – | 0.000828 kPa and 0.000833 kPa and 0.000824 kPa
